Experimental data from patent publication US10654860B2, “Tricyclic rho kinase inhibitors” (BRISTOL-MYERS SQUIBB COMPANY, priority 2016, dated 2020).
pIC50: −log10 of the molar value.

The compounds below were run against ROCK2 (Homo sapiens (Human), UniProt O75116) (assay: ROCK2 kinase inhibition assay (LABCHIP peptide phosphorylation)). Conditions: 5 μM ATP, 1.5 μM peptide substrate.
Type: biochemical
Description: The effectiveness of compounds of the present invention as ROCK inhibitors can be determined in a 30 μL, assay containing 20 mM HEPES, pH 7.5, 20 mM MgCl2, 0.015% Brij-35, 4 mM DTT, 5 μM ATP and 1.5 μM peptide substrate (FITC-AHA-AKRRRLSSLRA-OH). Compounds were dissolved in DMSO so that the final concentration of DMSO was <2%, and the reaction was initiated with Rho kinase variants. After incubation, the reaction was terminated by the addition of EDTA and the phosphorylated and non-phosphorylated peptides separated using a LABCHIP® 3000 Reader (Caliper Life Sciences). […] Compounds were tested in dose-response format, and the inhibition of kinase activity was calculated at each concentration of compound. The inhibition data were fit using a curve-fitting program to determine the IC50; i.e., the concentration of compound required to inhibit 50% of kinase activity.
Representative Examples were tested in the ROCK2 assay described above and found having ROCK2 inhibitory activity. The ranges of the ROCK2 IC50 values are as follows: ROCK2 IC50: ++++(<10 nM)+++(10-100 nM)++(100-500 nM)+(500-2000 nM)

ROCK2, sequence (O75116 whole entry, species assumed): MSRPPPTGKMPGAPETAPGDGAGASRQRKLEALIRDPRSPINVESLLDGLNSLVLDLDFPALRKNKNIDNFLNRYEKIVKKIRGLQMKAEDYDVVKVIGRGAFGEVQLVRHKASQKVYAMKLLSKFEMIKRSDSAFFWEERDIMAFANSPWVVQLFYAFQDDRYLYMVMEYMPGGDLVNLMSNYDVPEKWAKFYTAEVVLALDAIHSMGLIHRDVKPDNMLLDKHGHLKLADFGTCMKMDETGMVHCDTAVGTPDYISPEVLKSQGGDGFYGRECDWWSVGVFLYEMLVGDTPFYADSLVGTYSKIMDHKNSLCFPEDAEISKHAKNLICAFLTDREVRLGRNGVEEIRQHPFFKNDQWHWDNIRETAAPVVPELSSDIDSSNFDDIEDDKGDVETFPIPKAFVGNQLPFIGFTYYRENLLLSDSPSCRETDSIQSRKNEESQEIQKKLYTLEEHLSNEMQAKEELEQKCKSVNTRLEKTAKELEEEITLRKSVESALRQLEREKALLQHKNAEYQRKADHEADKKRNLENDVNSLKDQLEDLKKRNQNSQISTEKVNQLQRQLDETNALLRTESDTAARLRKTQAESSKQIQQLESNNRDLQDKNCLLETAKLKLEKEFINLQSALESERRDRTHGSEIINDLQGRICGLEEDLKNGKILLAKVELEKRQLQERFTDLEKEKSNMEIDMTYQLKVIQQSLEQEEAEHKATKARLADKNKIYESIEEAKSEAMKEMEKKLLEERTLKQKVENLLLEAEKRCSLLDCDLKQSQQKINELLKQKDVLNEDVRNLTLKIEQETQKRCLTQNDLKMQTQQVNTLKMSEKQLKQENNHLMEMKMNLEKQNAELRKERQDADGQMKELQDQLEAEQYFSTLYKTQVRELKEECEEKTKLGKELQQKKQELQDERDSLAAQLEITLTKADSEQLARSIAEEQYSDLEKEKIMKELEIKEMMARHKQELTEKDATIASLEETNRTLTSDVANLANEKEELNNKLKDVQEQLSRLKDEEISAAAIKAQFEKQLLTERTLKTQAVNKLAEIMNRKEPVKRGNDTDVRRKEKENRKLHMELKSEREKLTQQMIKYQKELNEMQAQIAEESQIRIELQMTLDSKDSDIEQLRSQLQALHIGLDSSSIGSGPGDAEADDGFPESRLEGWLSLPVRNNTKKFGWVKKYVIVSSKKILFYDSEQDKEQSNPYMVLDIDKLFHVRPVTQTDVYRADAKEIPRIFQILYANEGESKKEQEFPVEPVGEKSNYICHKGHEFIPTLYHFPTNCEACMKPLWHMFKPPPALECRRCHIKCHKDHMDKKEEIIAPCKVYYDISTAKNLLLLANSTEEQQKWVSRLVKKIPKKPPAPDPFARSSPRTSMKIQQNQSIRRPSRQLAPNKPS

pIC50	Compound
> 8.00	O=C1N(c2ccc3c(c2)CCc2n[nH]cc2-3)CCC12Cc1ccccc1N2 (racemic) [Example 1, (rac)-1′-(4,5-dihydro-2H-benzo[e]indazol-7-yl)spiro[indoline-2,3′-pyrrolidin]-2′-one]
7.00 to 8.00	COc1cccc(NC2CCN(c3ccc4c(n3)OCc3n[nH]cc3-4)C2=O)c1 (racemic) [Example 11, 1-(2,4-dihydropyrazolo[4′,3′:4,5]pyrano[2,3-b]pyridin-7-yl)-3-((3-methoxyphenyl)amino)pyrrolidin-2-one]
7.00 to 8.00	COc1cc(F)cc(NC2CCN(c3ccc4c(n3)OCc3n[nH]cc3-4)C2=O)c1 (racemic) [Example 12, 1-(2,4-dihydropyrazolo[4′,3′:4,5]pyrano[2,3-b]pyridin-7-yl)-3-((3-fluoro-5-methoxyphenyl)amino)pyrrolidin-2-one]
> 8.00	COc1cccc(NC2CCN(c3ccc4c(c3)OCc3n[nH]cc3-4)C2=O)c1 (racemic) [Example 13, 1-(2,4-dihydrochromeno[3,4-c]pyrazol-7-yl)-3-((3-methoxyphenyl)amino)pyrrolidin-2-one]
5.70 to 6.30	O=C1C(Nc2ccc3ncsc3c2)CCN1c1ccc2c(n1)OCc1n[nH]cc1-2 (racemic) [Example 32, 3-(benzo[d]thiazol-6-ylamino)-1-(2,4-dihydropyrazolo[4′,3′:4,5]pyrano[2,3-b]pyridin-7-yl)pyrrolidin-2-one]
5.70 to 6.30	N#Cc1cccc(NC2CCN(c3ccc4c(n3)OCc3n[nH]cc3-4)C2=O)c1 (racemic) [Example 34, 3-((1-(2,4-dihydropyrazolo[4′,3′:4,5]pyrano[2,3-b]pyridin-7-yl)-2-oxopyrrolidin-3-yl)amino)benzonitrile]
5.70 to 6.30	O=C1C(Nc2cccc(-c3cnco3)c2)CCN1c1ccc2c(n1)OCc1n[nH]cc1-2 (racemic) [Example 35, 1-(2,4-dihydropyrazolo[4′,3′:4,5]pyrano[2,3-b]pyridin-7-yl)-3-((3-(oxazol-5-yl)phenyl)amino)pyrrolidin-2-one]
> 8.00	O=C1N(c2ccc3c(c2)CCc2n[nH]cc2-3)CCC12Cc1ccccc1N2 (single isomer, unassigned) [Example 6, 1′-(4,5-dihydro-2H-benzo[e]indazol-7-yl)spiro[indoline-2,3′-pyrrolidin]-2′-one]
> 8.00	COc1cccc(NC2CCN(c3ccc4c(c3)OCc3n[nH]cc3-4)C2=O)c1 (single isomer, unassigned) [Example 10, 1-(2,4-dihydrochromeno[3,4-c]pyrazol-7-yl)-3-((3-methoxyphenyl)amino)pyrrolidin-2-one]
7.00 to 8.00	O=C1N(c2ccc3c(c2)CCc2n[nH]cc2-3)CCC12Cc1ccccc1N2 (single isomer, unassigned) [Example 16, 1′-(4,5-dihydro-2H-benzo[e]indazol-7-yl)spiro[indoline-2,3′-pyrrolidin]-2′-one]
7.00 to 8.00	COc1cccc(NC2CCN(c3ccc4c(c3)OCc3n[nH]cc3-4)C2=O)c1 (single isomer, unassigned) [Example 17, 1-(2,4-dihydrochromeno[3,4-c]pyrazol-7-yl)-3-((3-methoxyphenyl)amino)pyrrolidin-2-one]
> 8.00	COc1cccc(CN2CCN(c3ccc4c(c3)CCc3n[nH]cc3-4)C2=O)c1 [Example 2, 1-(4,5-dihydro-2H-benzo[e]indazol-7-yl)-3-(3-methoxybenzyl)imidazolidin-2-one]
> 8.00	COc1cccc(N[C@H]2CCN(c3ccc4c(c3)CCc3n[nH]cc3-4)C2=O)c1 [Example 3, (S)-1-(4,5-dihydro-21-benzo[e]indazol-7-yl)-3-((3-methoxyphenyl)amino)pyrolidin-2-one]
7.00 to 8.00	COc1cccc(CNC(=O)Nc2ccc3c(n2)OCc2n[nH]cc2-3)c1 [Example 5, 1-(2,4-dihydropyrazolo[4′,3′:4,5]pyrano[2,3-b]pyridin-7-yl)-3-(3-methoxybenzyl)urea]
> 8.00	COc1cccc([C@@H](C)N2CCN(c3ccc4c(c3)CCc3n[nH]cc3-4)C2=O)c1 [Example 7, (R)-1-(4,5-dihydro-2H-benzo[e]indazol-7-yl)-3-(1-(3-methoxyphenyl)ethyl)imidazolidin-2-one]
> 8.00	COc1cccc(CN2CCN(c3ccc4c(n3)CCc3n[nH]cc3-4)C2=O)c1 [Example 8, 1-(4,5-dihydro-2H-pyrazolo[4,3-f]quinolin-7-yl)-3-(3-methoxybenzyl)imidazolidin-2-one]
> 8.00	COc1cccc(N[C@@H]2CCN(c3ccc4c(c3)CCc3n[nH]cc3-4)C2=O)c1 [Example 9, (R)-1-(4,5-dihydro-2H-benzo[e]indazol-7-yl)-3-((3-methoxyphenyl)amino)pyrrolidin-2-one]

pIC50	Compound
> 8.00	COc1cccc(CN2CCN(c3ccc4c(c3)OCc3n[nH]cc3-4)C2=O)c1 [Example 14, 1-(2,4-dihydrochromeno[3,4-c]pyrazol-7-yl)-3-(3-methoxybenzyl)imidazolidin-2-one]
> 8.00	COc1cccc(CN2CCN(c3ccc4c(n3)OCc3n[nH]cc3-4)C2=O)c1 [Example 15, 1-(2,4-dihydropyrazolo[4′,3′:4,5]pyrano[2,3-b]pyridin-7-yl)-3-(3-methoxybenzyl)imidazolidin-2-one]
7.00 to 8.00	COc1cc(F)cc(CN2CCN(c3ccc4c(n3)OCc3n[nH]cc3-4)C2=O)c1 [Example 18, 1-(2,4-dihydropyrazolo[4′,3′:4,5]pyrano[2,3-b]pyridin-7-yl)-3-(3-fluoro-5-methoxybenzyl)imidazolidin-2-one]
7.00 to 8.00	COc1cccc(CN2CCN(c3ccc4c(c3)CCc3n[nH]c(C)c3-4)C2=O)c1 [Example 19, 1-(3-methoxybenzyl)-3-(1-methyl-4,5-dihydro-2H-benzo[e]indazol-7-yl)imidazolidin-2-one]
7.00 to 8.00	Cc1ccc(F)c(CN2CCN(c3ccc4c(n3)OCc3n[nH]cc3-4)C2=O)c1 [Example 20, 1-(2,4-dihydropyrazolo[4′,3′:4,5]pyrano[2,3-b]pyridin-7-yl)-3-(2-fluoro-5-methylbenzyl)imidazolidin-2-one]
7.00 to 8.00	O=C1N(Cc2cc(F)cc(F)c2)CCN1c1ccc2c(n1)OCc1n[nH]cc1-2 [Example 21, 1-(3,5-difluorobenzyl)-3-(2,4-dihydropyrazolo[4′,3′:4,5]pyrano[2,3-b]pyridin-7-yl)imidazolidin-2-one]
7.00 to 8.00	Cc1c(F)cccc1CN1CCN(c2ccc3c(n2)OCc2n[nH]cc2-3)C1=O [Example 22, 1-(2,4-dihydropyrazolo[4′,3′:4,5]pyrano[2,3-b]pyridin-7-yl)-3-(3-fluoro-2-methylbenzyl)imidazolidin-2-one]
7.00 to 8.00	NC(=O)c1cccc(CN2CCN(c3ccc4c(n3)OCc3n[nH]cc3-4)C2=O)c1 [Example 23, ((3-(2,4-dihydropyrazolo[4′,3′:4,5]pyrano[2,3-b]pyridin-7-yl)-2-oxoimidazolidin-1-yl)methyl)benzamide]
6.30 to 7.00	Cc1c(F)cccc1NC1CCN(c2ccc3c(n2)OCc2n[nH]cc2-3)C1=O (stereo not shown) [Example 24, 1-(2,4-dihydropyrazolo[4′,3′:4,5]pyrano[2,3-b]pyridin-7-yl)-3-((3-fluoro-2-methylphenyl)amino)pyrrolidin-2-one]
6.30 to 7.00	O=C1N(Cc2cccc(F)c2)CCN1c1ccc2c(n1)OCc1n[nH]cc1-2 [Example 25, 1-(2,4-dihydropyrazolo[4′,3′:4,5]pyrano[2,3-b]pyridin-7-yl)-3-(3-fluorobenzyl)imidazolidin-2-one]
6.30 to 7.00	Cc1cc(CN2CCN(c3ccc4c(n3)OCc3n[nH]cc3-4)C2=O)ccc1F [Example 26, 1-(2,4-dihydropyrazolo[4′,3′:4,5]pyrano[2,3-b]pyridin-7-yl)-3-(4-fluoro-3-methylbenzyl)imidazolidin-2-one]
6.30 to 7.00	COc1cccc(CN2CCN(c3ccc4c(n3)OCc3n[nH]cc3-4)C2=O)c1F [Example 27, 1-(2,4-dihydropyrazolo[4′,3′:4,5]pyrano[2,3-b]pyridin-7-yl)-3-(2-fluoro-3-methoxybenzyl)imidazolidin-2-one]
6.30 to 7.00	Cc1cc(F)ccc1CN1CCN(c2ccc3c(n2)OCc2n[nH]cc2-3)C1=O [Example 28, 1-(2,4-dihydropyrazolo[4′,3′:4,5]pyrano[2,3-b]pyridin-7-yl)-3-(4-fluoro-2-methylbenzyl)imidazolidin-2-one]
6.30 to 7.00	O=C1N(Cc2ccc(F)c(F)c2)CCN1c1ccc2c(n1)OCc1n[nH]cc1-2 [Example 29, 1-(3,4-difluorobenzyl)-3-(2,4-dihydropyrazolo[4′,3′:4,5]pyrano[2,3-b]pyridin-7-yl)imidazolidin-2-one]
6.30 to 7.00	O=C1N(Cc2cc(F)ccc2F)CCN1c1ccc2c(n1)OCc1n[nH]cc1-2 [Example 30, 1-(2,5-difluorobenzyl)-3-(2,4-dihydropyrazolo[4′,3′:4,5]pyrano[2,3-b]pyridin-7-yl)imidazolidin-2-one]
5.70 to 6.30	CC(C)(C)c1cccc(CN2CCN(c3ccc4c(n3)OCc3n[nH]cc3-4)C2=O)c1 [Example 31, 1-(3-(tert-butyl)benzyl)-3-(2,4-dihydropyrazolo[4′,3′:4,5]pyrano[2,3-b]pyridin-7-yl)imidazolidin-2-one]
5.70 to 6.30	O=C1N(Cc2c(F)cccc2F)CCN1c1ccc2c(n1)OCc1n[nH]cc1-2 [Example 33, 1-(2,6-difluorobenzyl)-3-(2,4-dihydropyrazolo[4′,3′:4,5]pyrano[2,3-b]pyridin-7-yl)imidazolidin-2-one]
